Where a chain is given by its changes, count along the chain named. Activity calls are given as the source filed them. The rule behind the calls is not given here.
Experiments:
[1] = Inhibition of Pseudomonas aeruginosa PqsD using ACoA/beta-ketodecanoic acid as substrate assessed as HHQ formation incubated for 10 mins prior to ACoA/beta-ketodecanoic acid addition measured for 40 mins
[2] = tested on: Pseudomonas aeruginosa; assay: Inhibition of Pseudomonas aeruginosa PqsD assessed as HHQ formation at 50 uM incubated 30 mins prior to substrate addition
[3] = Inhibition of Pseudomonas aeruginosa PqsD using ACoA/beta-ketodecanoic acid as substrate assessed as HHQ formation incubated for 30 mins prior to ACoA addition followed by 10 mins after treated with beta-ketodecanoic acid measured for 40 mins
[4] = tested on: Pseudomonas aeruginosa; assay: Binding affinity to Pseudomonas aeruginosa wild-type PqsD by NMR spectroscopy analysis
[5] = tested on: T1, 2-heptyl-4(1H)-quinolone synthase PqsD (Pseudomonas aeruginosa), A0A0C7ACN7 [H258F]; assay: Binding affinity to Pseudomonas aeruginosa PqsD H257F mutant expressed in Escherichia coli BL21 (lambdaDE3) cells by surface plasmon resonance analysis
T1 sequence (whole entry): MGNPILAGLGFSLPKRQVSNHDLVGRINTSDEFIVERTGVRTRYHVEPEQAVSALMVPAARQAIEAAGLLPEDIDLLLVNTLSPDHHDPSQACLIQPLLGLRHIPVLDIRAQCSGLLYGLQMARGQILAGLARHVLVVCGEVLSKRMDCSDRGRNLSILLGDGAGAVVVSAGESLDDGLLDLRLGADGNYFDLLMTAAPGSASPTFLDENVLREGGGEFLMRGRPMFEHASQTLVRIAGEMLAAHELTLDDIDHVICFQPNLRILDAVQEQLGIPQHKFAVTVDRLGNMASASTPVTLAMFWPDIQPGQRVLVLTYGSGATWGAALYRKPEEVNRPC

[6] = tested on: Pseudomonas aeruginosa; assay: Binding affinity to Pseudomonas aeruginosa wild-type PqsD expressed in Escherichia coli BL21 (lambdaDE3) cells by surface plasmon resonance analysis
[7] = tested on: Pseudomonas aeruginosa; assay: Binding affinity to Pseudomonas aeruginosa PqsD at 20 uM by surface plasmon resonance analysis in absence of ACoA
[8] = Binding affinity to Pseudomonas aeruginosa wild-type PqsD by isothermal titration calorimetry
[9] = tested on: T2, 2-heptyl-4(1H)-quinolone synthase PqsD (Pseudomonas aeruginosa), A0A0C7ACN7 [S318F]; assay: Binding affinity to Pseudomonas aeruginosa PqsD S317F mutant expressed in Escherichia coli BL21 (lambdaDE3) cells by surface plasmon resonance analysis
T2 sequence (whole entry): T1 sequence (whole entry) with F258H, S318F

[10] = tested on: Pseudomonas aeruginosa; assay: Binding affinity to Pseudomonas aeruginosa PqsD at 20 uM incubated prior to ACoA addition by surface plasmon resonance analysis in presence of ACoA
[11] = tested on: Pseudomonas aeruginosa; assay: Binding affinity to Pseudomonas aeruginosa PqsD at 20 uM by surface plasmon resonance analysis in presence of ACoA
[12] = tested on: T3, 2-heptyl-4(1H)-quinolone synthase PqsD (Pseudomonas aeruginosa), A0A0C7ACN7 [C113A]; assay: Binding affinity to Pseudomonas aeruginosa PqsD C112A mutant expressed in Escherichia coli BL21 (lambdaDE3) cells by surface plasmon resonance analysis
T3 sequence (whole entry): T1 sequence (whole entry) with C113A, F258H

[13] = tested on: Pseudomonas aeruginosa; assay: Binding affinity to Pseudomonas aeruginosa PqsD at 100 uM by surface plasmon resonance analysis in presence of ACoA

Structure (SMILES): CCN(CC)S(=O)(=O)c1cc(C(=O)Nc2ccc(Br)cc2C(=O)O)ccc1Br
- IC50 [1]: 3.8 µM

Structure (SMILES): CCN(CC)S(=O)(=O)c1cccc(C(=O)Nc2cc([N+](=O)[O-])ccc2C(=O)O)c1
- IC50 [1]: 6.3 µM

Structure (SMILES): CN(C)S(=O)(=O)c1cccc(C(=O)Nc2ccccc2C(=O)O)c1
- inhibition [2]: 35%

Structure (SMILES): CCc1ccc(C(=O)Nc2ccccc2C(=O)O)cc1S(=O)(=O)N(CC)CC
- inhibition [2]: 39%

Structure (SMILES): CCN(CC)S(=O)(=O)c1cccc(C(=O)Nc2ccc(C)cc2C(=O)O)c1
- IC50 [1]: 18.4 µM

Structure (SMILES): O=C(Nc1ccccc1C(=O)O)c1cccc(S(=O)(=O)N2CCOCC2)c1
- inhibition [2]: 16%

Structure (SMILES): O=C(Nc1ccccc1C(=O)O)c1cccc(S(=O)(=O)N2CCCCCC2)c1
- IC50 [1]: 14.8 µM

Structure (SMILES): CCN(CC)S(=O)(=O)c1ccc(C(=O)Nc2ccccc2C(=O)O)cc1
- inhibition [2]: 44%

Structure (SMILES): CCCN(CCC)S(=O)(=O)c1cccc(C(=O)Nc2ccccc2C(=O)O)c1
- IC50 [1]: 5.4 µM

Structure (SMILES): CCN(CC)C(=O)c1cccc(C(=O)Nc2ccc(Br)cc2C(=O)O)c1
- IC50 [1]: 25.5 µM

Structure (SMILES): CCN(CC)S(=O)(=O)c1cccc(C(=O)Nc2cc(Cl)ccc2C(=O)O)c1
- IC50 [1]: 9.4 µM

Structure (SMILES): O=C(Nc1ccccc1C(=O)O)c1ccc(-c2ccccc2)c(Oc2ccccc2)c1
- IC50 [1]: 6.6 µM

Structure (SMILES): O=C(Nc1ccccc1C(=O)O)c1cccc(S(=O)(=O)N2CCCCC2)c1
- IC50 [1]: 14.4 µM

Structure (SMILES): O=[N+]([O-])c1ccccc1C(O)c1ccccc1 (configuration not stated)
- IC50 [1]: 3.2 µM

Structure (SMILES): CCN(CC)S(=O)(=O)c1cccc(C(=O)Nc2cccc(C(=O)O)c2)c1
- inhibition [2]: 13%

Structure (SMILES): CCN(CC)S(=O)(=O)c1cccc(C(=O)Nc2ccc(C(F)(F)F)cc2C(=O)O)c1
- IC50 [1]: 12.4 µM

Structure (SMILES): CCN(CC)C(=O)c1cccc(C(=O)Nc2ccccc2C(=O)O)c1
- inhibition [2]: < 10%

Structure (SMILES): CCN(CC)S(=O)(=O)c1cccc(C(=O)Nc2ccc(C#N)cc2C(=O)O)c1
- IC50 [1]: 26.2 µM

Structure (SMILES): CCN(Cc1ccccc1)S(=O)(=O)c1cccc(C(=O)Nc2ccccc2C(=O)O)c1
- IC50 [3]: 12.9 µM
- IC50 [1]: 16.5 µM
- Activity [4]: Active

Structure (SMILES): CCN(CC)S(=O)(=O)c1cc(C(=O)Nc2ccccc2C(=O)O)ccc1C
- IC50 [1]: 27.3 µM

Structure (SMILES): CCN(CC)S(=O)(=O)c1cccc(C(=O)Nc2cccc(OC)c2C(=O)O)c1
- inhibition [2]: 44%

Structure (SMILES): CCN(CC)S(=O)(=O)c1cccc(C(=O)Nc2ccc(-c3ccccc3)cc2C(=O)O)c1
- Activity [5]: Active
- IC50 [3]: 4.2 µM
- IC50 [1]: 3 µM
- Activity [6]: Active
- Activity [7]: Active
- Kd [8]: 5.2 µM
- Activity [9]: Active
- Activity [10]: Active
- Activity [11]: Active
- Activity [12]: Active

Structure (SMILES): O=C(Nc1ccccc1C(=O)O)c1cccc(S(=O)(=O)N2CCCC2)c1
- inhibition [2]: 47%

Structure (SMILES): Cc1ccc(S(=O)(=O)c2cc(O)c3ccccc3c2O)cc1
- IC50 [3]: 1.1 µM
- IC50 [1]: 0.15 µM
- Activity [13]: inactive

Structure (SMILES): CCN(CC)S(=O)(=O)c1cc(C(=O)Nc2ccc(F)cc2C(=O)O)ccc1Br
- IC50 [1]: 6.6 µM

Structure (SMILES): CCN(CC)S(=O)(=O)c1cccc(C(=O)Nc2ccc(-c3ccc(C(=O)O)cc3)cc2C(=O)O)c1
- IC50 [3]: 2 µM
- IC50 [1]: 2.7 µM

Structure (SMILES): CCN(CC)S(=O)(=O)c1cccc(C(=O)Nc2cccc(O)c2C(=O)O)c1
- IC50 [3]: 1.1 µM
- IC50 [1]: 1.2 µM
- Activity [4]: Active

Structure (SMILES): CCN(CC)S(=O)(=O)c1cccc(C(=O)Nc2ccc(Br)cc2C(=O)O)c1
- Activity [5]: Active
- IC50 [3]: 7 µM
- IC50 [1]: 9.9 µM
- Activity [6]: Active
- Activity [7]: Active
- Activity [9]: Active
- Activity [11]: Active
- Activity [12]: Active

Structure (SMILES): CCN(CC)S(=O)(=O)c1cccc(C(=O)Nc2ccc(-c3cccc(C(N)=O)c3)cc2C(=O)O)c1
- IC50 [1]: 3.8 µM

Structure (SMILES): CCN(CC)S(=O)(=O)c1cc(C(=O)Nc2ccccc2C(=O)O)ccc1Br
- Activity [5]: Active
- IC50 [1]: 6.9 µM
- Activity [6]: Active
- Activity [9]: Active
- Activity [12]: Active

Structure (SMILES): CCN(CC)S(=O)(=O)c1cccc(C(=O)Nc2ccc(-c3cccc(C(=O)O)c3)cc2C(=O)O)c1
- IC50 [3]: 1.6 µM
- IC50 [1]: 1.5 µM

Structure (SMILES): CCN(CC)S(=O)(=O)c1cccc(C(=O)Nc2cc(F)ccc2C(=O)O)c1
- IC50 [1]: 8 µM

Structure (SMILES): CCN(CC)S(=O)(=O)c1cccc(C(=O)Nc2cccc(Cl)c2C(=O)O)c1
- IC50 [1]: 39 µM

Structure (SMILES): CCN(CC)S(=O)(=O)c1cccc(C(=O)Nc2ccc(F)cc2C(=O)O)c1
- IC50 [1]: 11.4 µM

Structure (SMILES): CCN(CC)S(=O)(=O)c1cccc(C(=O)Nc2ccccc2C(=O)O)c1
- IC50 [3]: 19.4 µM
- IC50 [1]: 19.8 µM
- inhibition [2]: 69%
- Activity [4]: Active

Structure (SMILES): CCN(CC)S(=O)(=O)c1ccc(C(=O)Nc2ccc(Br)cc2C(=O)O)cc1
- IC50 [1]: 13 µM

Structure (SMILES): CCN(CC)S(=O)(=O)c1cccc(C(=O)Nc2ccc(-c3ccc(C(N)=O)cc3)cc2C(=O)O)c1
- IC50 [1]: 1.9 µM

Structure (SMILES): CCN(CC)S(=O)(=O)c1cccc(C(=O)Nc2cccc(F)c2C(=O)O)c1
- IC50 [1]: 24.9 µM

Structure (SMILES): CCN(CC)S(=O)(=O)c1cccc(C(=O)Nc2ccc([N+](=O)[O-])cc2C(=O)O)c1
- IC50 [1]: 8.9 µM

Structure (SMILES): NS(=O)(=O)c1cccc(C(=O)Nc2ccccc2C(=O)O)c1
- IC50 [1]: 43.6 µM

Structure (SMILES): CCN(CC)S(=O)(=O)c1cccc(C(=O)Nc2ccccc2C(N)=O)c1
- inhibition [2]: 21%

Reference: ChEMBL document CHEMBL2412976, “Structure optimization of 2-benzamidobenzoic acids as PqsD inhibitors for Pseudomonas aeruginosa infections and elucidation of binding mode by SPR, STD NMR, and molecular docking” (J Med Chem, 2013)
